# What was measured:
# Type in all cases: cell-based
# Pseudomonas aeruginosa = assay: MIC against Gram-negative bacteria: Pseudomonas aeruginosa; conditions: for MIC against P. aeruginosa / MIC P. aeruginosa: 5×10^5 CFU/mL
# Outline: (§1)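 Two-fold serial dilutions of each purified human EGF domain protein, three replicate wells per level, were combined with bacteria at a final 5×10^5 CFU/mL in LB. Cultures were shaken at 175 rpm, 37° C. The MIC was taken as the minimum concentration preventing growth.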
# Citrobacter diversus = assay: MIC against Gram-negative bacteria: Citrobacter diversus; conditions: for MIC against C. diversus / MIC C. diversus: 5×10^5 CFU/mL
# Outline: as §1
# Klebsiella pneumonia = assay: MIC against Gram-negative bacteria: Klebsiella pneumonia; conditions: for MIC against K. pneumonia / MIC K. pneumonia: 5×10^5 CFU/mL
# Outline: as §1
# Moraxella catarrhalis = assay: MIC against Gram-negative bacteria: Moraxella catarrhalis; conditions: for MIC against M. catarrhalis / MIC M. catarrhalis: 5×10^5 CFU/mL
# Outline: as §1
# Serratia marcescens = assay: MIC against Gram-negative bacteria: Serratia marcescens; conditions: for MIC against S. marcescens / MIC S. marcescens: 5×10^5 CFU/mL
# Outline: as §1
# E. coli BL21 = assay: MIC against Gram-negative bacteria: E. coli BL21; conditions: for MIC against E. coli BL21 / MIC E. coli BL21: 5×10^5 CFU/mL
# Outline: as §1
# Proteus vulgaris = assay: MIC against Gram-negative bacteria: Proteus vulgaris; conditions: for MIC against P. vulgaris / MIC P. vulgaris: 5×10^5 CFU/mL
# Outline: as §1
# Enterobacter cloacae = assay: MIC against Gram-negative bacteria: Enterobacter cloacae; conditions: for MIC against E. cloacae / MIC E. cloacae: 5×10^5 CFU/mL
# Outline: as §1
# Proteus mirabilis = assay: MIC against Gram-negative bacteria: Proteus mirabilis; conditions: for MIC against P. mirabilis / MIC P. mirabilis: 5×10^5 CFU/mL
# Outline: as §1
# Aeromonas hydrophila = assay: MIC against Gram-negative bacteria: Aeromonas hydrophila; conditions: for MIC against A. hydrophila / MIC A. hydrophila: 5×10^5 CFU/mL
# Outline: as §1
# E. coli DH5α = assay: Antibacterial activity: MIC and growth curve against E. coli DH5α in 96-well plate; conditions: minimal inhibitory concentration against E. coli DH5α; 96-well plate, 5×10^5 CFU/mL, 37° C., judged after 8 h
# Outline: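 MIC taken as lowest protein level with no bacterial growth, tracked by A600 every 30 min during 37 °C, 175 rpm culture. Two-fold protein series 50-12.5 μg/mL final, triplicate wells, against 5×10^5 CFU/mL of LB-washed mid-log cells.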
# [1] = Pseudomonas aeruginosa, 10 h cultivation at 37° C.
# [2] = Citrobacter diversus, 10 h cultivation at 37° C.
# [3] = Klebsiella pneumonia, 10 h cultivation at 37° C.
# [4] = Moraxella catarrhalis, 10 h cultivation at 37° C.
# [5] = Serratia marcescens, 10 h cultivation at 37° C.
# [6] = E. coli BL21, 10 h cultivation at 37° C.
# [7] = Proteus vulgaris, 10 h cultivation at 37° C.
# [8] = Enterobacter cloacae, 10 h cultivation at 37° C.
# [9] = Proteus mirabilis, 10 h cultivation at 37° C.
# [10] = Aeromonas hydrophila, 10 h cultivation at 37° C.
substance,measurement,setting,value
PRT489 (CDNGGTWEQGQCACLPGFSGDRCQLQTRCQNG; listed as Homo sapiens),MIC against P. aeruginosa,"Pseudomonas aeruginosa; 96-well plate, 37° C., 10 h",12.5 mg/L
same,MIC against C. diversus,"Citrobacter diversus; 96-well plate, 37° C., 10 h",12.5 mg/L
same,MIC against K. pneumonia,"Klebsiella pneumonia; 96-well plate, 37° C., 10 h",25 mg/L
same,MIC against M. catarrhalis,"Moraxella catarrhalis; 96-well plate, 37° C., 10 h",25 mg/L
same,MIC against S. marcescens,"Serratia marcescens; 96-well plate, 37° C., 10 h",12.5 mg/L
same,MIC against E. coli BL21,"E. coli BL21; 96-well plate, 37° C., 10 h",12.5 mg/L
same,MIC against P. vulgaris,"Proteus vulgaris; 96-well plate, 37° C., 10 h",25 mg/L
same,MIC against E. cloacae,"Enterobacter cloacae; 96-well plate, 37° C., 10 h",12.5 mg/L
same,MIC against P. mirabilis,"Proteus mirabilis; 96-well plate, 37° C., 10 h",50 mg/L
same,MIC against A. hydrophila,"Aeromonas hydrophila; 96-well plate, 37° C., 10 h",25 mg/L
same,MIC,E. coli DH5α,12.5 mg/L
PRT631 (CSCHPQGSVSEQMPCDPVTGQCSCLPHVTARDCSRCYPGFFDLQPGRGCRS; listed as Homo sapiens),MIC P. aeruginosa,"Pseudomonas aeruginosa; 96-well plate, 37° C., 10 h",25 mg/L
same,MIC C. diversus,"Citrobacter diversus; 96-well plate, 37° C., 10 h",25 mg/L
same,MIC K. pneumonia,"Klebsiella pneumonia; 96-well plate, 37° C., 10 h",12.5 mg/L
same,MIC M. catarrhalis,"Moraxella catarrhalis; 96-well plate, 37° C., 10 h",12.5 mg/L
same,MIC S. marcescens,"Serratia marcescens; 96-well plate, 37° C., 10 h",25 mg/L
same,MIC E. coli BL21,"E. coli BL21; 96-well plate, 37° C., 10 h",12.5 mg/L
same,MIC P. vulgaris,"Proteus vulgaris; 96-well plate, 37° C., 10 h",12.5 mg/L
same,MIC E. cloacae,"Enterobacter cloacae; 96-well plate, 37° C., 10 h",25 mg/L
same,MIC P. mirabilis,"Proteus mirabilis; 96-well plate, 37° C., 10 h",25 mg/L
same,MIC A. hydrophila,"Aeromonas hydrophila; 96-well plate, 37° C., 10 h",12.5 mg/L
same,MIC,E. coli DH5α,25 mg/L
PRT1268 (CAVNNGGCDRTCKDTSTGVHCSCPVGFTLQLDGKTC; listed as Homo sapiens),MIC against P. aeruginosa,"Pseudomonas aeruginosa; Pseudomonas aeruginosa, 96-well plate, 37° C., 10 h",50 mg/L
same,MIC against C. diversus,"Citrobacter diversus; Citrobacter diversus, 96-well plate, 37° C., 10 h",12.5 mg/L
same,MIC against K. pneumonia,"Klebsiella pneumonia; Klebsiella pneumonia, 96-well plate, 37° C., 10 h",12.5 mg/L
same,MIC against M. catarrhalis,"Moraxella catarrhalis; Moraxella catarrhalis, 96-well plate, 37° C., 10 h",50 mg/L
same,MIC against S. marcescens,"Serratia marcescens; Serratia marcescens, 96-well plate, 37° C., 10 h",50 mg/L
same,MIC against E. coli BL21,"E. coli BL21; E. coli BL21, 96-well plate, 37° C., 10 h",12.5 mg/L
same,MIC against P. vulgaris,"Proteus vulgaris; Proteus vulgaris, 96-well plate, 37° C., 10 h",25 mg/L
same,MIC against E. cloacae,"Enterobacter cloacae; Enterobacter cloacae, 96-well plate, 37° C., 10 h",25 mg/L
same,MIC against P. mirabilis,"Proteus mirabilis; Proteus mirabilis, 96-well plate, 37° C., 10 h",12.5 mg/L
same,MIC against A. hydrophila,"Aeromonas hydrophila; Aeromonas hydrophila, 96-well plate, 37° C., 10 h",50 mg/L
same,MIC,E. coli DH5α,50 mg/L
PRT1479 (AKNECHPERTDGCQHFCLPGQESYTCSCAQGYRLGEDHKQCV; listed as Homo sapiens),MIC against P. aeruginosa,Pseudomonas aeruginosa; [1],50 mg/L
same,MIC against C. diversus,Citrobacter diversus; [2],50 mg/L
same,MIC against K. pneumonia,Klebsiella pneumonia; [3],100 mg/L
same,MIC against M. catarrhalis,Moraxella catarrhalis; [4],12.5 mg/L
same,MIC against S. marcescens,Serratia marcescens; [5],12.5 mg/L
same,MIC against E. coli BL21,E. coli BL21; [6],12.5 mg/L
same,MIC against P. vulgaris,Proteus vulgaris; [7],50 mg/L
same,MIC against E. cloacae,Enterobacter cloacae; [8],50 mg/L
same,MIC against P. mirabilis,Proteus mirabilis; [9],25 mg/L
same,MIC against A. hydrophila,Aeromonas hydrophila; [10],12.5 mg/L
same,MIC,E. coli DH5α,50 mg/L
PRT1418 (IAHYLDRVVKEGCPGLCNGNGRCTLDLNGWHCVCQLGWRGAGCD; listed as Homo sapiens),MIC against P. aeruginosa,Pseudomonas aeruginosa; [1],25 mg/L
same,MIC against C. diversus,Citrobacter diversus; [2],12.5 mg/L
same,MIC against K. pneumonia,Klebsiella pneumonia; [3],50 mg/L
same,MIC against M. catarrhalis,Moraxella catarrhalis; [4],50 mg/L
same,MIC against S. marcescens,Serratia marcescens; [5],25 mg/L
same,MIC against E. coli BL21,E. coli BL21; [6],12.5 mg/L
same,MIC against P. vulgaris,Proteus vulgaris; [7],50 mg/L
same,MIC against E. cloacae,Enterobacter cloacae; [8],25 mg/L
same,MIC against P. mirabilis,Proteus mirabilis; [9],12.5 mg/L
same,MIC against A. hydrophila,Aeromonas hydrophila; [10],25 mg/L
same,MIC,E. coli DH5α,25 mg/L
PRT924 (DVDECAMANSNPCEHAGKCVNTDGAFHCECLKGYAGPRCE; listed as Homo sapiens),MIC,"Pseudomonas aeruginosa; P. aeruginosa, 10 h cultivation at 37° C.",50 mg/L
same,MIC,"Citrobacter diversus; C. diversus, 10 h cultivation at 37° C.",12.5 mg/L
same,MIC,"Klebsiella pneumonia; K. pneumonia, 10 h cultivation at 37° C.",12.5 mg/L
same,MIC,"Moraxella catarrhalis; M. catarrhalis, 10 h cultivation at 37° C.",50 mg/L
same,MIC,"Serratia marcescens; S. marcescens, 10 h cultivation at 37° C.",50 mg/L
same,MIC,E. coli BL21; [6],25 mg/L
same,MIC,"Proteus vulgaris; P. vulgaris, 10 h cultivation at 37° C.",12.5 mg/L
same,MIC,"Enterobacter cloacae; E. cloacae, 10 h cultivation at 37° C.",25 mg/L
same,MIC,"Proteus mirabilis; P. mirabilis, 10 h cultivation at 37° C.",25 mg/L
same,MIC,"Aeromonas hydrophila; A. hydrophila, 10 h cultivation at 37° C.",50 mg/L
same,MIC,E. coli DH5α,12.5 mg/L
PRT703 (NCSRLGCQHHCVPTLDGPTCYCNSSFQLQADGKTCK; listed as Homo sapiens),MIC P. aeruginosa,"Pseudomonas aeruginosa; 96-well plate, 37° C., 10 h",12.5 mg/L
same,MIC C. diversus,"Citrobacter diversus; 96-well plate, 37° C., 10 h",12.5 mg/L
same,MIC K. pneumonia,"Klebsiella pneumonia; 96-well plate, 37° C., 10 h",25 mg/L
same,MIC M. catarrhalis,"Moraxella catarrhalis; 96-well plate, 37° C., 10 h",50 mg/L
same,MIC S. marcescens,"Serratia marcescens; 96-well plate, 37° C., 10 h",50 mg/L
same,MIC E. coli BL21,"E. coli BL21; 96-well plate, 37° C., 10 h",50 mg/L
same,MIC P. vulgaris,"Proteus vulgaris; 96-well plate, 37° C., 10 h",12.5 mg/L
same,MIC E. cloacae,"Enterobacter cloacae; 96-well plate, 37° C., 10 h",50 mg/L
same,MIC P. mirabilis,"Proteus mirabilis; 96-well plate, 37° C., 10 h",25 mg/L
same,MIC A. hydrophila,"Aeromonas hydrophila; 96-well plate, 37° C., 10 h",25 mg/L
same,MIC,E. coli DH5α,25 mg/L

# Source: patent US9833497B2, “Human originated EGF domain proteins and use of the same” (CHENGDU SOURCEBIO LIMITED-LIABILITY COMPANY, priority 2013, dated 2017)
